Experimental data taken from patent US20240116985A1, “STAPLED PEPTIDES AND METHODS THEREOF” (priority 2020, published 2024).
Starred links: 1 amine or outer side, 2 acyl side, 3 side chain; linkers in the order of their positions; H or OH if unused. Positions of bridges follow the written chain, without caps; N, C: chain ends. Non-standard residues stand in square brackets, D forms with d. Residues, ends and D or L forms follow the SMILES beside them. X3 = O=C([C@]1(CC=[*:3])CCCN1[*:1])[*:2]; Bta = N[C@@H](Cc1csc2ccccc12)C(=O)O; tBuAla = CC(C)(C)C[C@H](N)C(=O)O; 3Thi = N[C@@H](Cc1ccsc1)C(=O)O; R5 = C=CCCC[C@@](C)(N)C(=O)O; S5 = C=CCCC[C@](C)(N)C(=O)O; Aib = CC(C)(N)C(=O)O

What follows are compounds tested against T1, full-length beta-Catenin (Uniprot ID P35222) (Homo sapiens, UniProt P35222) (assay: Fluorescence polarization IC50 (beta-catenin / 5FAM-TCF4 10-53 competition)). Conditions: fluorescence polarization; read-out: beta-Catenin FP IC50.
T1 construct: 10 nM full-length beta-Catenin (Uniprot ID P35222)
T1 sequence (P35222 1-781): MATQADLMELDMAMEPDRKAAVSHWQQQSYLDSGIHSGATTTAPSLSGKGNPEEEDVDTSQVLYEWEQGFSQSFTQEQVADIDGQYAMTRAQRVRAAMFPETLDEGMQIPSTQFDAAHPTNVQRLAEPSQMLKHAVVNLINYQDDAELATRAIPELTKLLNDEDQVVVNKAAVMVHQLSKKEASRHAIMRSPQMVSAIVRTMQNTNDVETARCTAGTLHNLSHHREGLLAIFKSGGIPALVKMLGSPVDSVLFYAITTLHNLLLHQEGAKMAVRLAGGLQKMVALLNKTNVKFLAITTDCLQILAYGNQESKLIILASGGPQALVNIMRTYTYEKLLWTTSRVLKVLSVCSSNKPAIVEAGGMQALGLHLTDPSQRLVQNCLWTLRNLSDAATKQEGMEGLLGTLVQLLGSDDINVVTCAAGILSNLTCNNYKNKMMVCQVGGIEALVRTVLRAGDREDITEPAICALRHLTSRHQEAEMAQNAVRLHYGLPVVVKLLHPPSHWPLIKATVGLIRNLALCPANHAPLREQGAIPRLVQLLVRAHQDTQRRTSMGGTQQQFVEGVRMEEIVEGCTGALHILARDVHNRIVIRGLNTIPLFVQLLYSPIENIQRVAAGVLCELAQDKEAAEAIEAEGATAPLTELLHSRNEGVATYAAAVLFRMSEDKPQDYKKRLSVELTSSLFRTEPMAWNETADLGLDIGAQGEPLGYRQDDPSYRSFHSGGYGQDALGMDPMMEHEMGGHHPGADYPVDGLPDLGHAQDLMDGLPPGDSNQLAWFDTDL
Format: binding

SMILES	IC50 [µM]
CC(=O)N1CCC[C@]12CC=CCCCC1(CCCC=CCCOC(=O)N3CCC(C(=O)N[C@@H](Cc4ccccc4C(F)(F)F)C(=O)N[C@@H](Cc4csc5ccccc45)C(=O)N[C@@H](C)C(N)=O)(CC3)NC(=O)[C@H](CC(C)C)NC(=O)[C@H](Cc3ccccc3)NC(=O)[C@H](C)NC(=O)[C@H](CCC(N)=O)NC(=O)[C@H](Cc3cccc(C(=O)O)c3)NC(=O)[C@H](CC(=O)O)NC1=O)NC(=O)[C@H](CC(C)(C)C)NC(=O)[C@H](CC(=O)O)NC2=O (stereo partly drawn) [I-2584, Ac-PL3-Asp-Npg-B5-Asp-3COOHF-Gln-Ala-Phe-Leu-SPip1-2F3MeF-BztA-Ala-NH2]	1.84
CC(=O)N1CCC[C@]12CC=CCCCC1(CCCC=CCCCOC(=O)N3CC[C@@](C(=O)N[C@@H](Cc4ccsc4)C(=O)N[C@@H](Cc4csc5ccccc45)C(=O)N[C@@H](CCC(N)=O)C(N)=O)(C3)NC(=O)[C@H](CC(N)=O)NC(=O)[C@H](Cc3ccccc3)NC(=O)[C@H](C)NC(=O)[C@H](C)NC(=O)[C@H]([C@@H](C)O)NC(=O)[C@H](CC(N)=O)NC1=O)NC(=O)[C@H](CC(C)(C)C)NC(=O)[C@H](Cc1ccccc1C(=O)O)NC2=O (single isomer, unassigned) [I-2136, Ac-PL3-2COOHF-Npg-B5-Asn-Thr-Ala-Ala-Phe-Asn-PyrS2-3Thi-BztA-Gln-NH2]	5.82
CC(=O)N1CCC[C@]12CCCCCCC1(CCCCCCCCOC(=O)N3CC[C@](C(=O)N[C@@H](Cc4ccsc4)C(=O)N[C@@H](Cc4csc5ccccc45)C(=O)N[C@@H](CCC(N)=O)C(N)=O)(C3)NC(=O)[C@H](CC(C)C)NC(=O)[C@H](Cc3ccccc3)NC(=O)[C@H](C)NC(=O)[C@H](C)NC(=O)[C@H](CC(=O)O)NC(=O)[C@H](CC(=O)O)NC1=O)NC(=O)[C@H](CC(C)(C)C)NC(=O)[C@H](CC(=O)O)NC2=O (stereo partly drawn) [I-2022, Ac-PL3-Asp-Npg-B5-Asp-Asp-Ala-Ala-Phe-Leu-PyrR2-3Thi-BztA-Gln-NH2]	1.89
CC(=O)N1CCC[C@]12CC=CCCC[C@@](C)(C(=O)N[C@@H](CC(=O)O)C(=O)N[C@@H](CC(=O)O)C(=O)NC(C)(C)C(=O)N[C@@H](C)C(=O)N[C@@H](Cc1ccccc1)C(=O)N[C@]1(C)CCCC=CCCC[C@@](C)(C(=O)N[C@@H](C)C(N)=O)NC(=O)[C@H](Cc3csc4ccccc34)NC(=O)[C@H](Cc3ccsc3)NC(=O)[C@H](C)NC1=O)NC(=O)[C@H](CC(C)(C)C)NC(=O)[C@H](CC(=O)O)NC2=O [I-1780, Ac-PL3-Asp-Npg-S5-Asp-Asp-Aib-Ala-Phe-R5-Ala-3Thi-BztA-S5-Ala-NH2] (Ac-[X3]D[tBuAla][S5]DD[Aib]AF[R5]A[3Thi][Bta][S5]A-NH2; staple 1-4, 10-14 (inferred))	4.19
CC(=O)N1CCC[C@]12CC=CCCCC1(CCCC=CCCCCOC(=O)N3CC(C(=O)N[C@@H](Cc4ccccc4C(F)(F)F)C(=O)N[C@@H](Cc4csc5ccccc45)C(=O)N[C@@H](CCC(N)=O)C(N)=O)(C3)NC(=O)[C@H](CC(C)C)NC(=O)[C@H](Cc3ccccc3)NC(=O)[C@H](C)NC(=O)C(C)(C)NC(=O)[C@H](Cc3cccc(C(=O)O)c3)NC(=O)[C@H](CC(=O)O)NC1=O)NC(=O)[C@H](CC(C)(C)C)NC(=O)[C@H](CC(=O)O)NC2=O (stereo partly drawn) [I-2615, Ac-PL3-Asp-Npg-B5-Asp-3COOHF-Aib-Ala-Phe-Leu-Az3-2F3MeF-BztA-Gln-NH2]	0.115
CC(C)C[C@@H]1NC(=O)[C@H](Cc2ccccc2)NC(=O)[C@H](C)NC(=O)[C@H](C)NC(=O)[C@H](CN(CC(=O)O)CC(F)(F)F)NC(=O)[C@H](CC(=O)O)NC(=O)C2(CCCCCCCCOC(=O)N3CC[C@@](C(=O)N[C@@H](Cc4ccsc4)C(=O)N[C@@H](Cc4csc5ccccc45)C(=O)N[C@@H](CCC(N)=O)C(N)=O)(C3)NC1=O)CCCCCCOc1cccc(c1)C(=O)N[C@@H](CC(=O)O)C(=O)N[C@@H](CC(C)(C)C)C(=O)N2 (stereo partly drawn) [I-2376, BzAm3OAllyl-Asp-Npg-B5-Asp-TfeGA-Ala-Ala-Phe-Leu-PyrS2-3Thi-BztA-Gln-NH2]	0.352
CC(=O)N1CCC[C@]12CCCCC1(CCCCCCOC(=O)N3CC[C@@](C(=O)N[C@@H](Cc4ccsc4)C(=O)N[C@@H](Cc4csc5ccccc45)C(=O)N[C@@H](CCC(N)=O)C(N)=O)(C3)NC(=O)[C@H](CC(C)C)NC(=O)[C@H](Cc3ccccc3)NC(=O)[C@H](C)NC(=O)[C@H](C)NC(=O)[C@H](CC(=O)O)NC(=O)[C@H](CC(=O)O)NC1=O)NC(=O)[C@H](CC(C)(C)C)NC(=O)[C@H](CC(=O)O)NC2=O (stereo partly drawn) [I-2160, Ac-PL3-Asp-Npg-B3-Asp-Asp-Ala-Ala-Phe-Leu-PyrS2-3Thi-BztA-Gln-NH2]	1.24
CC(=O)N1CCC[C@]12CC=CCCCC1(CCCC=CCCCOC(=O)N3CC[C@@](C(=O)N[C@@H](Cc4ccccc4)C(=O)N[C@@H](Cc4csc5ccccc45)C(=O)N[C@@H](CCC(N)=O)C(N)=O)(C3)NC(=O)[C@H](CC(C)C)NC(=O)[C@H](Cc3ccccc3)NC(=O)[C@H](C)NC(=O)[C@H](CCCCNC(C)C)NC(=O)[C@H](CCO)NC(=O)[C@H](CC(=O)O)NC1=O)NC(=O)[C@H](CC1CCCCC1)NC(=O)[C@H](CC(N)=O)NC2=O (stereo partly drawn) [I-2344, Ac-PL3-Asn-Cha-B5-Asp-Hse-iPrLys-Ala-Phe-Leu-PyrS2-Phe-BztA-Gln-NH2]	0.586
CC(=O)N1CCC[C@]12CC=CCCCC1(CCCC=CCCCOC(=O)N3CC[C@@](C(=O)N[C@@H](Cc4ccccc4Cl)C(=O)N[C@@H](Cc4csc5ccccc45)C(=O)N[C@@H](CCC(N)=O)C(N)=O)(C3)NC(=O)[C@H](CO)NC(=O)[C@H](Cc3ccccc3)NC(=O)[C@H](CC(C)C)NC(=O)[C@H](CC(C)C)NC(=O)[C@H](CC(=O)O)NC(=O)[C@H](CC(=O)O)NC1=O)NC(=O)[C@H](Cc1ccccc1)NC(=O)[C@H](CC(=O)O)NC2=O (stereo partly drawn) [I-1155, Ac-PL3-Asp-Phe-B5-Asp-Asp-Leu-Leu-Phe-Ser-PyrS2-2C1F-BztA-Gln-NH2]	0.06
CC(=O)N1CCC[C@]12CC=CCCCC1(CCCC=CCCCOC(=O)N3CC[C@@](C(=O)N[C@@H](Cc4ccsc4)C(=O)N[C@@H](Cc4csc5ccccc45)C(=O)N[C@@H](CCC(N)=O)C(N)=O)(C3)NC(=O)[C@H](CC(N)=O)NC(=O)[C@H](Cc3ccc(O)cc3)NC(=O)[C@H](C)NC(=O)[C@H](C)NC(=O)[C@H]([C@@H](C)O)NC(=O)[C@H](CC(N)=O)NC1=O)NC(=O)[C@H](CC(C)(C)C)NC(=O)[C@H](CC(=O)O)NC2=O (stereo partly drawn) [I-2016, Ac-PL3-Asp-Npg-B5-Asn-Thr-Ala-Ala-Tyr-Asn-PyrS2-3Thi-BztA-Gln-NH2]	0.703
CC(=O)N1CCC[C@]12CC=CCCCCC1(CCCCC=CCCCOC(=O)N3CC[C@@](C(=O)N[C@@H](Cc4ccccc4C(F)(F)F)C(=O)N[C@@H](Cc4csc5ccccc45)C(=O)N[C@@H](CCC(N)=O)C(N)=O)(C3)NC(=O)[C@H](CC(C)C)NC(=O)[C@H](Cc3ccccc3)NC(=O)[C@H](C)NC(=O)[C@H](C)NC(=O)[C@H](Cc3cccc(C(=O)O)c3)NC(=O)[C@H](CC(=O)O)NC1=O)NC(=O)[C@H](CC(C)(C)C)NC(=O)[C@H](CC(=O)O)NC2=O (stereo partly drawn) [I-2511, Ac-PL3-Asp-Npg-B6-Asp-3COOHF-Ala-Ala-Phe-Leu-PyrS2-2F3MeF-BztA-Gln-NH2]	0.566
CC(=O)N1CCC[C@]12CC=CCCCC1(CCCC=CCCCOC(=O)N3CC[C@@](C(=O)N[C@@H](Cc4ccsc4)C(=O)N[C@@H](Cc4csc5ccccc45)C(=O)N[C@@H](CCO)C(N)=O)(C3)NC(=O)[C@H](CC(C)C)NC(=O)[C@H](Cc3ccccc3)NC(=O)[C@H](C)NC(=O)[C@H](C)NC(=O)[C@H](CC(=O)O)NC(=O)[C@H](CC(=O)O)NC1=O)NC(=O)[C@H](CC(N)=O)NC(=O)[C@H](CC(=O)O)NC2=O (stereo partly drawn) [I-1518, Ac-PL3-Asp-Asn-B5-Asp-Asp-Ala-Ala-Phe-Leu-PyrS2-3Thi-BztA-Hse-NH2]	0.023
CC(=O)N1CCC[C@]12CC=CCCCC1(CCCC=CCCCOC(=O)N3CC[C@@](C(=O)N[C@@H](Cc4ccccc4)C(=O)N[C@@H](Cc4csc5ccccc45)C(=O)N[C@@H](CCC(N)=O)C(N)=O)(C3)NC(=O)[C@H](CC(C)C)NC(=O)[C@H](Cc3ccccc3)NC(=O)[C@H](C)NC(=O)[C@H](CCCCNC(C)C)NC(=O)[C@H](CCC(N)=O)NC(=O)[C@H](CC(=O)O)NC1=O)NC(=O)[C@H](CC1CCCCC1)NC(=O)[C@H](CCO)NC2=O (stereo partly drawn) [I-2353, Ac-PL3-Hse-Cha-B5-Asp-Gln-iPrLys-Ala-Phe-Leu-PyrS2-Phe-BztA-Gln-NH2]	2.76
CCCCCCSSCCOC(=O)C[C@@H]1NC(=O)[C@]2(CC=CCCCC3(CCCC=CCCCOC(=O)N4CC[C@@](C(=O)N[C@@H](Cc5ccsc5)C(=O)N[C@@H](Cc5csc6ccccc56)C(=O)N[C@@H](CCC(N)=O)C(N)=O)(C4)NC(=O)[C@H](CC(C)C)NC(=O)[C@H](Cc4ccccc4)NC(=O)[C@H](C)NC(=O)[C@H](C)NC(=O)[C@H](CC(=O)O)NC(=O)[C@H](CC(=O)O)NC3=O)NC(=O)[C@H](CC(C)(C)C)NC1=O)CCCN2C(C)=O (stereo partly drawn) [I-1960, Ac-PL3-[EtSSHex]AspE-Npg-B5-Asp-Asp-Ala-Ala-Phe-Leu-PyrS2-3Thi-BztA-Gln-NH2]	0.544
